Reference: patent US20190309323A1, “PROMOTER WITH AN ENRICHED CYTOSINE-GUANINE DINUCLEOTIDE REGION, VECTORS, CELLULAR LINES, METHOD FOR PRODUCING RECOMBINANT PROTEIN” (UNIVERSIDAD DE CHILE, priority 2016, published 2019)

Tested on: CHO-K1 cells
Assay: Transient transfection Dual-Glo luciferase assay (Luc/Ren)
Type: cell-based, Chinese hamster
Conditions: FIG. 9
Experimental: Furthermore, the effect of addition of the promoter on luciferase activity in transient transfections was determined. CHO-K1 cells were grown to reach 90% confluence were co-transfected using Lipofectamine CD (Invitrogen. EEU U), with the normalization vector pGL4.73 (Promega. USA) expressing Renilla luciferase reniformis (Ren), under the control of SV40 promoter, and with experimental vectors Seq1-Luc (SEQ ID No.: 2), Seq4-Luc (SEQ ID No.: 35) and Seq5-Luc (SEQ ID No.: 36) expressing Photinus pyralis luciferase (Luc), under the control of the promoters studied and pGL4.17 (base vector without promoter).
CHO-K1 cells were cultured in 24-well plates in DMEM-F12 medium (Gibco) supplemented with fetal bovine serum (FBS) (HyClone) 10%, at 37° C. and 5% CO2, inoculating 300,000 cells/mL for 24 hours, or up to between 80 to 90% confluency. […] To analyze the activity of the reporter gene transfections, the “Dual-Glo Luciferase Assay System (Promega. USA)” (Promega) was used following the manufacturer's instruction, where from cell lysate its measurable sequentially luciferase activity firefly expressed as reporters vectors and activity of renilla luciferase expressed by the normalizer vector. Both activities were mediated by quantifying luminiscence read on a Lumininometer, model Luminoskan ASECNT (Thermo Electronic Corporation). […]

Molecule | relative luciferase activity in transient transfection
Seq5-Luc: reporter vector SEQ ID No. 36 under control of the minimal portion of CMV or Core CMV [reference compound] | lowest activity
RegCG: 1147 bp fragment of Cricetulus griseus β-actin promoter rich in cytosine-guanine dinucleotides, SEQ ID NO. 5 (nucleic acid, Promoter) DNA: GGAGAGGGGGTAAAAAAATGCTGCACTGTGCGGCTAGGCCGGTGAGTGAGCGGCGCGGAGCCAATCAGCGCTCGCCGTTCCGAAAGTTGCCTTTTATGGCTCGAGTGGCCGCTGTGGCGTCCTATAAAACCCGGCGGCGCAACGCGCAGCCACTGTCGAGTCCGCGTCCACCCGCGAGCACAGGCCTTTCGCAGCTCTTTCTTCGCCGCTCCACACCCGCCACCAGGTAAGCAGGGACAACAGGCCCAGCCGGCCACAGCCCTCCCGTGGGCAGTGACCGCGCTGCAGGGTCGCGGGGGACACTCGGCGCGGACACCGGGGAAGGCTGGAGGGTGGTGCCGGGCCGCGGAGCGGACACTTTCAGATCCAACTTTCAGTCCAGGGTGTAGACCCTTTACAGCCGCATTGCCACGGTGTAGACACCGGTGGACCCGCTCTGGCTCAGAGCACGCGGCTTGGGGGAACCCATTAGGGTCGCAGTGTGGGCGCTATGAGAGCCGATGCAGCTTTCGGGTGTTGAACCGTATCTGCCCACCTTGGGGGGAGGACACAAGGTCGGGAGCCAAACGCCACGATCATGCCTTGGTGGCCCATGGGTCTTTGTCTAAACCGGTTTGCCCATTTGGCTTGCCGGGCGGGCGGGCGCGGCGGGCCCGGCTCGGCCGGGTTGGGGGCTGGGTTGCCACTGCGCTTGCGCGCTCTATGGCTGGGTATTGGGGCGCGTGCACGCTGGGGAGGGAGCCCTTCCTCTTCCCCCTCTCCCAAGTTAAACTTGCGCGTGCGTATTGAGACTTGGAGCGCGGCCACCGGGGTTGGGCGAGGGCGGGGCCGTTGTCCGGAAGGGGCGGGGTCGCAGCGGCTTCGGGGCGCCTGCTCGCGCTTCCTGCTGGGTGTGGTCGCCTCCCGCGCGCGCACTAGCCGCCCGCCGGCGGGGCGAAGGCGGGGCTTGCGCCCGTTTGGGGAGGGGGCGGAGGCCTGGCTTCCTGCCGTGGGGCCGCCTCCGGACCAGCGTTTGCCTCTTATGGTAATAACGCGGCCGGCCTGGGCTTCCTTTGTCCCCTGAGTTTGGGCGCGCGCCCCCTGGCGGCCCGAGGCCGCGGCTTGCCGGAAGTGGGCAGGGCGGCAGCGGCTGCGCCTAGTGGCCCGCCAGTGACCGCGACCCTCTTTTGTGCCCTGATATAGTTCGCC | has transcriptional activity
